Experimental data published in patent US10508103B2, “Benzimidazole-linked indole compound acting as novel divalent IAP antagonist” (MEDSHINE DISCOVERY INC., priority 2016, dated 2019).

Each compound was assayed against XIAP-BIR3 Protein (Homo sapiens (Human), UniProt P98170) (assay: Fluorescence polarization affinity of compounds to XIAP-BIR3). Conditions: XIAP-BIR3 30 nM; 5 nM ARPFAQ-K(5-FAM)-NH2 probe; FP; pH 7.5; read-out: affinity to target protein in vitro, XIAP-BIR3 Protein (IC50).
Assay type: binding
Procedure: (§1) Biological Assay 1: affinity of compounds to cIAP1-BIR3, cIAP2-BIR3, XIAP-BIR3 • 1) Affinity of compounds listed in table to cIAP1-BIR3, Ciap2-BIR3, XIAP-BIR3 was tested referring to Nikolovska-Colesks, Z. et.Al. (Analytical Biochemistry,2004,232:261-273) to obtain IC50 value. Generally speaking, in 10-dose IC50 mode, IAP antagonists with different concentrations were diluted in series by 3-fold and fluorescence labelled ARPFAQ-K (5-FAM)-NH2 peptide was used as probe to test compounds binding to protein BIR3 domain. • 2) Test condition: cIAP1-BIR3: 20 nM; cIAP2-BIR3: 60 nM; XIAP-BIR3: 30 nM; 5 nM probe in 100 mM tripotassium phosphate, pH 7.5, 0.1 mg/mL BSA, 0.005% Triton X100 and 0.5% DMSO. • 3) Test procedure: compounds were added into protein with different concentrations by using ECHO (LabCyte), and then the mixture was preincubated for 15 min. The probe was added and the final concentration was 5 nM. After incubating for 60 min, FP was tested and mP was calculated. Experiment results were list in table 1.

Chain of XIAP-BIR3 Protein (P98170 241-356): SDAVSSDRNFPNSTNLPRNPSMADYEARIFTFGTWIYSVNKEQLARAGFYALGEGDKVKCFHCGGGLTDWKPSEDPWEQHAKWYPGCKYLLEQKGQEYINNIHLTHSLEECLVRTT

Row | SMILES | IC50
1 | CN[C@@H](C)C(=O)N[C@H](C(=O)N1CCC[C@H]1Cc1c(-c2nc3cc(F)ccc3n2C[C@@H]2CCCN2C(=O)[C@@H](NC(=O)[C@H](C)NC)C(C)C)[nH]c2cc(F)ccc12)C(C)C [Embodiment 1] | 10 to 100 nM

Each compound was assayed on NF-κB Luciferase Reporter Hela cells (assay: TNF-α inducing NF-κB reporter). Conditions: Homo sapiens, 6 h, Table 3, 20 ng/mL TNF-α, Bright-Glo luciferase, values given as ranges.
Assay type: cell-based
Procedure: Biological Assay 2: TNF-α inducing NF-κB reporter
• 1) tested compounds were added into DMSO to give parent liquor (10 mM); • 2) reference compound Birinapant (32 μL, 10 mM) was added into DMSO (128 μL) to give a solution (2 mM); • 3) 0.5 μL reference compound Birinapant (2 mM) and tested compounds (10 mM) were taken by Echo and added into Greiner 96 well black cell culture plate respectively. The initial concentration of the reference compound and tested compound was 10 μM and 50 μM, respectively. Then, the reference compound and tested compounds were diluted at 9 points in series by 5-fold; and every plate was repeated for 3 times. • 4) the reference compound WXFL2012A001 (Birinapant) (final concentration: 10 μM) as HPE and DMSO (final concentration: 0.5%) as ZPE.
• 5) purpose of the three repeated plates: the first plate was used for testing compounds' activity;
the second plate was used for testing cytotoxicity of the compounds; the third plate was used for solution replacement of the first and second plates: mixing inducer TNF-α and medium containing 0.1% FBS, and then being added to the third plate and the resultant mixture was transferred to the first plate where supernatants had been removed.
• 1) removing medium in NF-iBLuciferase Reporter Hela cell culture flask and washing cell once with PBS (10 mL) • 2) adding 0.25% pancreatin (3 mL) to T150 cell culture flask, and placinginto cell incubator (37° C., 5%CO2) and dissociating cell for 3 min, and then medium (10 mL) was added to end dissociation and blowing cells with electric pipette until cells were dispersed into single cell. • 3) Calculating cell density with cell counter Countstar • 4) Adjusting NF-κB Luciferase Reporter Hela density with medium to 2.0×10^5 cells/mL • 5) Adding cells to two Greiner 96 well black cell culture plates containing compounds, (100 μL per well (2.0×10^4 cells/well)), one plate was used for testing compounds' activity, another was used for testing cytotoxicity of the compounds. • 6) Placing cell culture plates into cell incubator (37° C., 5%CO2) and incubatingfor 24 h Second Day TNF-α Inducing • 1) TNF-α (100 μg/mL) was diluted into 20 ng/mL with 0.1% FBS medium and transferredto the third plate with 100 μL per well • 2) Removing medium of the first 96 well black cell culture plate (compound activity testing plate) after 24 h, replacing with fresh medium containing the compound and 20 ng/mL TNF-α in the third plate • 3) Placing cell culture plate into cell incubator (37° C., 5% CO2) and incubatingfor 6 h • 4) after 6 h, compound's activity in the first plate was tested according to Bright-Glo (Promega) manual method, luciferase signal in each well was tested by Envision plate reader • 5) compound's cytotoxicity in the second plate was tested according to ATPlite 1Step (Perkin Elmer) manual method, luciferase signal in each well was tested by Envision plate reader • 6) analyzing with software to obtain EC50 of compound.

Row | SMILES | EC50
2 | CN[C@@H](C)C(=O)N[C@H](C(=O)N1CCC[C@H]1Cc1c(-c2nc3cc(F)ccc3n2C[C@@H]2CCCN2C(=O)[C@@H](NC(=O)[C@H](C)NC)C(C)C)[nH]c2cc(F)ccc12)C(C)C [Embodiment 1] | < 10 nM
3 | CC[C@H](NC(=O)[C@H](C)NC)C(=O)N1CCC[C@H]1Cc1c(-c2nc3cc(F)ccc3n2C[C@@H]2CCCN2C(=O)[C@@H](NC(=O)[C@H](C)NC)C(C)(C)C)[nH]c2cc(F)ccc12 [Embodiment 3] | < 10 nM
4 | CC[C@H](NC(=O)[C@H](C)NC)C(=O)N1CCC[C@H]1Cc1c(-c2nc3cc(F)ccc3n2C[C@@H]2CCCN2C(=O)[C@@H](NC(=O)[C@H](C)NC)C2CCCCC2)[nH]c2cc(F)ccc12 [Embodiment 4] | 10 to 100 nM
5 | CC[C@H](NC(=O)[C@H](C)NC)C(=O)N1CCC[C@H]1Cn1c(-c2[nH]c3cc(F)ccc3c2C[C@@H]2CCCN2C(=O)[C@@H](NC(=O)[C@H](C)NC)C(C)(C)C)nc2cc(F)ccc21 [Embodiment 5] | 10 to 100 nM
6 | CC[C@H](NC(=O)[C@H](C)NC)C(=O)N1CCC[C@H]1Cn1c(-c2[nH]c3cc(F)ccc3c2C[C@@H]2CCCN2C(=O)[C@@H](NC(=O)[C@H](C)NC)C2CCCCC2)nc2cc(F)ccc21 [Embodiment 6] | 10 to 100 nM
7 | CCC[C@H](NC(=O)[C@H](C)NC)C(=O)N1CCC[C@H]1Cc1c(-c2nc3cc(F)ccc3n2C[C@@H]2CCCN2C(=O)[C@@H](NC(=O)[C@H](C)NC)C(C)C)[nH]c2cc(F)ccc12 [Embodiment 7] | 10 to 100 nM
8 | CCC[C@H](NC(=O)[C@H](C)NC)C(=O)N1CCC[C@H]1Cc1c(-c2nc3cc(F)ccc3n2C[C@@H]2CCCN2C(=O)[C@@H](NC(=O)[C@H](C)NC)C(C)(C)C)[nH]c2cc(F)ccc12 [Embodiment 8] | < 10 nM
9 | CCC[C@H](NC(=O)[C@H](C)NC)C(=O)N1CCC[C@H]1Cc1c(-c2nc3cc(F)ccc3n2C[C@@H]2CCCN2C(=O)[C@@H](NC(=O)[C@H](C)NC)C2CCCCC2)[nH]c2cc(F)ccc12 [Embodiment 9] | 10 to 100 nM
10 | CCC[C@H](NC(=O)[C@H](C)NC)C(=O)N1CCC[C@H]1Cn1c(-c2[nH]c3cc(F)ccc3c2C[C@@H]2CCCN2C(=O)[C@@H](NC(=O)[C@H](C)NC)C(C)C)nc2cc(F)ccc21 [Embodiment 10] | 10 to 100 nM
11 | CCC[C@H](NC(=O)[C@H](C)NC)C(=O)N1CCC[C@H]1Cn1c(-c2[nH]c3cc(F)ccc3c2C[C@@H]2CCCN2C(=O)[C@@H](NC(=O)[C@H](C)NC)C(C)(C)C)nc2cc(F)ccc21 [Embodiment 11] | 10 to 100 nM
12 | CCC[C@H](NC(=O)[C@H](C)NC)C(=O)N1CCC[C@H]1Cn1c(-c2[nH]c3cc(F)ccc3c2C[C@@H]2CCCN2C(=O)[C@@H](NC(=O)[C@H](C)NC)C2CCCCC2)nc2cc(F)ccc21 [Embodiment 12] | 10 to 100 nM
13 | CCC[C@H](NC(=O)[C@H](C)NC)C(=O)N1C[C@@H](F)C[C@H]1Cc1c(-c2nc3cc(F)ccc3n2C[C@@H]2C[C@H](F)CN2C(=O)[C@H](CCC)NC(=O)[C@H](C)NC)[nH]c2cc(F)ccc12 [Embodiment 15] | 10 to 100 nM
14 | CCC[C@H](NC(=O)[C@H](C)NC)C(=O)N1C[C@@H](F)C[C@H]1Cc1c(-c2nc3cc(F)ccc3n2C[C@@H]2C[C@H](F)CN2C(=O)[C@@H](NC(=O)[C@H](C)NC)C(C)(C)C)[nH]c2cc(F)ccc12 [Embodiment 33] | < 10 nM
15 | CCC[C@H](NC(=O)[C@H](C)NC)C(=O)N1C[C@@H](F)C[C@H]1Cc1c(-c2nc3cc(F)ccc3n2C[C@@H]2C[C@H](F)CN2C(=O)[C@@H](NC(=O)[C@H](C)NC)C2CCCCC2)[nH]c2cc(F)ccc12 [Embodiment 34] | < 10 nM
16 | CCC[C@H](NC(=O)[C@H](C)NC)C(=O)N1C[C@@H](F)C[C@H]1Cn1c(-c2[nH]c3cc(F)ccc3c2C[C@@H]2C[C@H](F)CN2C(=O)[C@@H](NC(=O)[C@H](C)NC)C(C)(C)C)nc2cc(F)ccc21 [Embodiment 35] | < 10 nM
17 | CC[C@H](NC(=O)[C@H](C)NC)C(=O)N1CCC[C@H]1Cc1c(-c2nc3cc(F)ccc3n2C[C@@H]2C[C@H](F)CN2C(=O)[C@@H](NC(=O)[C@H](C)NC)C(C)C)[nH]c2cc(F)ccc12 [Embodiment 37] | 10 to 100 nM
18 | CC[C@H](NC(=O)[C@H](C)NC)C(=O)N1CCC[C@H]1Cn1c(-c2[nH]c3cc(F)ccc3c2C[C@@H]2C[C@H](F)CN2C(=O)[C@@H](NC(=O)[C@H](C)NC)C(C)C)nc2cc(F)ccc21 [Embodiment 41] | 10 to 100 nM
19 | CN[C@@H](C)C(=O)N[C@H](C(=O)N1CC(F)(F)C[C@H]1Cc1c(-c2nc3cc(F)ccc3n2C[C@@H]2CC(F)(F)CN2C(=O)[C@@H](NC(=O)[C@H](C)NC)C(C)C)[nH]c2cc(F)ccc12)C(C)C [Embodiment 45] | 10 to 100 nM
20 | CC[C@H](NC(=O)[C@H](C)NC)C(=O)N1CC(F)(F)C[C@H]1Cn1c(-c2[nH]c3cc(F)ccc3c2C[C@@H]2CC(F)(F)CN2C(=O)[C@@H](NC(=O)[C@H](C)NC)C(C)C)nc2cc(F)ccc21 [Embodiment 47] | 10 to 100 nM
21 | CC[C@H](NC(=O)[C@H](C)NC)C(=O)N1C[C@@H](F)C[C@H]1Cc1c(-c2nc3cc(F)ccc3n2C[C@@H]2[C@@H](C)[C@@H](C)CN2C(=O)[C@H](CC)NC(=O)[C@H](C)NC)[nH]c2cc(F)ccc12 [Embodiment 48] | 10 to 100 nM
22 | CN[C@@H](C)C(=O)N[C@H](C(=O)N1C[C@@H](F)C[C@H]1Cc1c(-c2nc3cc(F)ccc3n2C[C@@H]2[C@@H](C)[C@@H](C)CN2C(=O)[C@@H](NC(=O)[C@H](C)NC)C(C)C)[nH]c2cc(F)ccc12)C(C)C [Embodiment 49] | < 10 nM
23 | CC[C@H](NC(=O)[C@H](C)NC)C(=O)N1C[C@@H](F)C[C@H]1Cc1c(-c2nc3cc(F)ccc3n2C[C@@H]2C[C@H](F)CN2C(=O)[C@@H](NC(=O)[C@H](C)NC)C(C)C)[nH]c2ccccc12 [Embodiment 50] | 10 to 100 nM
24 | CC[C@H](NC(=O)[C@H](C)NC)C(=O)N1C[C@@H](F)C[C@H]1Cc1c(-c2nc3cc(F)ccc3n2C[C@@H]2C[C@H](F)CN2C(=O)[C@@H](NC(=O)[C@H](C)NC)C(C)C)[nH]c2cc(Cl)ccc12 [Embodiment 51] | < 10 nM

Same assay, conditions: Homo sapiens, 6 h, Table 4, 20 ng/mL TNF-α, Bright-Glo luciferase, exact values with control Birinapant

Row | SMILES | EC50
25 | CC[C@H](NC(=O)[C@H](C)NC)C(=O)N1C[C@@H](O)C[C@H]1Cc1c(-c2[nH]c3cc(F)ccc3c2C[C@@H]2C[C@H](O)CN2C(=O)[C@H](CC)NC(=O)[C@H](C)NC)[nH]c2cc(F)ccc12 [Birinapant, reference compound] | 7.05 nM
26 | CN[C@@H](C)C(=O)N[C@H](C(=O)N1CCC[C@H]1Cc1c(-c2nc3cc(F)ccc3n2C[C@@H]2CCCN2C(=O)[C@@H](NC(=O)[C@H](C)NC)C(C)C)[nH]c2cc(F)ccc12)C(C)C [Embodiment 1] | 7.11 nM

Each compound was assayed against cIAP2-BIR3 Protein (Homo sapiens (Human), UniProt Q13489) (assay: Fluorescence polarization affinity of compounds to cIAP2-BIR3). Conditions: cIAP2-BIR3 60 nM; 5 nM ARPFAQ-K(5-FAM)-NH2 probe; FP; pH 7.5; read-out: affinity to target protein in vitro, cIAP2-BIR3 Protein (IC50).
Chain of cIAP2-BIR3 Protein (Q13489 238-349): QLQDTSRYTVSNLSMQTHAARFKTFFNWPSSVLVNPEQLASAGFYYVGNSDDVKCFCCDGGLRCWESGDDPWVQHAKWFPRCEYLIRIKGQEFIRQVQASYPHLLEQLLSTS
Assay type: binding
Procedure: as §1

Row | SMILES | IC50
27 | CN[C@@H](C)C(=O)N[C@H](C(=O)N1CCC[C@H]1Cc1c(-c2nc3cc(F)ccc3n2C[C@@H]2CCCN2C(=O)[C@@H](NC(=O)[C@H](C)NC)C(C)C)[nH]c2cc(F)ccc12)C(C)C [Embodiment 1] | 10 to 100 nM

What follows are compounds tested against cIAP1-BIR3 Protein (Homo sapiens (Human), UniProt Q13490) (assay: Fluorescence polarization affinity of compounds to cIAP1-BIR3). Conditions: cIAP1-BIR3 20 nM; 5 nM ARPFAQ-K(5-FAM)-NH2 probe; FP; pH 7.5; read-out: affinity to target protein in vitro, cIAP1-BIR3 Protein (IC50).
Chain of cIAP1-BIR3 Protein (Q13490 253-363): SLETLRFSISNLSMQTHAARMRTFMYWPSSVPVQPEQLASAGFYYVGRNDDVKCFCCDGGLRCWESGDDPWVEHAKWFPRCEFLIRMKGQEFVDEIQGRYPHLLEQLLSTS
Assay type: binding
Procedure: as §1

Row | SMILES | IC50
28 | CN[C@@H](C)C(=O)N[C@H](C(=O)N1CCC[C@H]1Cc1c(-c2nc3cc(F)ccc3n2C[C@@H]2CCCN2C(=O)[C@@H](NC(=O)[C@H](C)NC)C(C)C)[nH]c2cc(F)ccc12)C(C)C [Embodiment 1] | < 10 nM
